The results in this text go back to patent publication EP0077430B1, “A pharmaceutical composition for enhancing keratinogenesis and reducing facial and scalp seborrhea” (Mavi S.r.l., priority 1981, dated 1983).

Holding throughout (assay type): in vivo, Whistar rats
For assay [1], the system named is biotin poor rats. The assay is described as follows: Experimental test 2, lot I: composition of hair keratin (sulphur, cystine, proteins) of biotin poor rats. The source says: (§1) The elective stimulating action has also been verified on rats, performed especially by the gelatin cystine, in the keratinization processes of the hairy structures, verifying the average content of sulphur and cystine of the hair of rats kept on a normal diet and respectively of rats kept on a biotin poor diet, fed respectively only gelatin, only cystine and the association of gelatin-cystine both in the form of mechanical mixture in hard capsules, and in the form melted in soft spherules.
(§2) 110 Whistar rats of both sexes were employed (55 males plus 55 females) of the average weight of 150 g±9, divided in two lots of respectively 60 (lot I) and 50 (lot II) rats each. Following the Kalopissis and Manoussos methodology already quoted in test 1, 50 rats of lot I were kept on a biotin poor diet for about 40 days until the appearance of an evident seborrhoic clinical condition was induced, while the remaining 10 served as controls. After having obtained the desired clinical condition with the appearance of seborrhoea and loss of hair in several zones, the 60 rats were divided into six groups of 10 rats each and treated as follows:
The diets prepared specifically by a specialized firm were administered weekly in the cages of the rats, in accurately weighed quantity so that the rats, kept in single cages, would ingest together with the feed, respectively:
After six weeks of treatment and after having taken about 1 gof hair per rat, all the animals included the controls were sacrificed in a chloroform saturated atmosphere.
(§3) A part of the hair (about 100 mg) of all the animals of the two groups, thoroughly washed with alcohol and ethyl ether and dried, are used for the determination of the total sulphur carried out by means of titration, according to the previously mentioned McDonald methodology.
(§4) After having hydrolyzed the hair of all the animals (about 800 mg) previously washed as already described, the quantity of cystine was determined using an autoanalyzer.
(§5) The extraction of the total keratins of the hairs was carried out using the urea-thioglycolate method as described in Gillespie J. M., Reis P. J. and Schinckel P. G. (1964) Aust. J. Biol. Sci. 17, 548.
(§6) After determining from one portion the total keratin (total proteins), the keratin fraction of high sulphur content is separated through alkylation with iodo acetate, dialysis and precipitation of the protein of low sulphur content with zinc acetate at pH 6. The total sulphur was determined on the protein fraction "rich in sulphur" according to the already mentioned McDonald methodology.

Assay [2] has as its system normal rats, not subjected previously to a biotin poor diet. The assay is described as follows: Experimental test 2, lot II: composition of hair keratin of normal rats fed an enriched diet. To be noted: 150 days of treatment.
From the text: as §1, §2
The 50 rats of the second lot (normal rats, not subjected previously to a biotin poor diet), divided into five groups of 10 rats each, have been fed respectively:
The quantity of the feed placed in the cages was calculated in such a way that the rats would ingest the same quantity per kg of cystin, FU gelatin or gelatin-cystine already described above.
After 150 days of treatment the rats, under ether anaesthesia, were partially depilated with a razor.
as §3, §4, §5, §6

The subject of assay [3] is rats kept on a biotin poor diet. Description: Experimental test 1: skin total lipids and hair sulphur content of rats on a biotin free diet with additives. The source says: According to the invention in fact the intimate distribution of the cystine within the mass of "soft" gelatin ensures a particularly favorable oral absorption, so that it is possible to reduce the doses of active substances with respect to the doses established by the prior art for the indicated pharmaceutical use. […] It is in fact known that the alimentary insufficiency of biotin induces, in the rat, the formation of a seborrhoic clinical condition, characterized by the increase of the sebaceous secretion and by the fall of hair.
In order to have a direct comparison, said rats have been successively treated, in different lots, -with diets to which was added respectively gelatin, cystine, gelatin-cystine in mechanical mixture and gelatin-cystine in soft spherules.
60 Whistar rats were employed of both sexes (30 males and 30 females) of the average weight of 150 g±9. Following the Kalopissis et al methodology (U.S. patent No. 3629452) 50 rats were kept on a biotin free diet for about 40 days until an evident seborrhoic clinical condition had developed, while the remaining 10 served as controls. After obtaining the desired clinical condition with the development of seborrhoea and loss of hair in various zones, the 50 rats were subdivided into five groups of 10 rats each and treated as follows: • 1st group: biotin free diet added with cystine; • 2nd group: biotin free diet added with gelatin; • 3rd group: biotin free diet added with cystine and gelatin in mechanical mixture; • 4th group: biotin free diet added with the mixture of gelatin/cystine melted in soft spherules; • 5th group: biotin free diet; • 6th group: control.
The diets were administered weekly in the cages of the rats in accurately weighed quantity so that the rats, kept in single cages, would ingest together with the feed, respectively: • 1st group: 84 mg per kg a week of cystine; • 2nd group: 203 mg per kg a week of gelatin from collagen; • 3rd group: 84 mg per kg a week of cystine and 203 mg per kg a week of gelatin; • 4th group: 280 mg per kg a week of the melted mixture of gelatin/cystine comprising 79.8 mg of cystine and 200.2 mg of gelatin.
After three weeks of treatment and after taking about 200 mg of hairs per rat, all the animals, included the controls, were sacrificed in a chloroform saturated environment in order to control their skin total lipids and in order to carry out possible histological and bioptic examinations. […]
The content of the total lipids was determined gravimetrically by the difference in weight of the sample before and after the extraction in a Soxhlet with acetone for 10 days and further drying out in vacuum over P205 and paraffin for 24 hours.

[4] abbreviates: hair of biotin poor rats, six weeks of treatment.
[5] abbreviates: in the biotin-poor rats, oral, P<0.05.

With `N[C@@H](CSSC[C@H](N)C(=O)O)C(=O)O` [Levo-cystine], in assay [1] (setting [4]), the “"Sulphur rich" proteic fraction %” value is on record as 20±1%; the “Sulphur contained in the "sulphur rich" proteic fraction, %” value amounted to 3.9±0.05%; the Sulphur content % is 2.48±0.07° %. Besides, the Cystine content % in assay [1] (hair of biotin poor rats, six weeks of treatment, g/100 g of hairs, autoanalyzer after hydrolysis) turned out to be 9.3±0.6%. This molecule also registered a Total proteins % in assay [1] (total keratins of hair, urea-thioglycolate extraction, biotin poor rats, six weeks) of 90±1%. For the same molecule, in assay [2], the “"Sulphur rich" keratin %” value was found to be 25.9±0.5° %, the Cystine content % was determined as 13.8±0.6° %, the “Sulphur contained in the "sulphur rich keratin" %” value was 5.1±0.2° % and the Sulphur content % was determined as 3.6±0.1° %. Moreover, the Total lipides % in assay [3] (dorsal skin, gravimetric after acetone extraction, biotin poor diet plus additive, three weeks of treatment, °=P<0.05 versus group VI (controls)) was 38.1±2.987° %. In addition, in assay [3] (setting [5]), the “increase of the total sulphur of the hair” value is recorded as “about 7%” and the “reduction of the total lipids of the skin” value was “about 15%”. For the same molecule, in assay [3] (total sulphur by titration, percentage of dried weight of hair, biotin poor diet plus additive, three weeks of treatment), the “Sulphur content (×g hair, %)” value amounted to 2.48±0.066° %.
